Drawing on patent US20210032257A1, “(E)-1-(4-(DIMETHYLAMINO)BUT-2-ENOYL)PYRROLIDIN-3-YL 4-((3-ISOPROPYL-5-METHYLPYRAZOLO[1,5-A]PYRIMIDIN-7-YL)AMINO)PIPERIDINE-1-CARBOXYLATE FOR INHIBITING CDK7” (Eli Lilly and Company, priority 2017, published 2021), this text covers IC50 for one compound.

Assay [1] addresses CDK9/cyclinT1 (Homo sapiens, UniProt P50750). Kind of assay: Assay for inhibition of CDK9/CyclinT1 kinase activity (radiolabel filter binding).
Experimental: The IC50 determination for CDK7 and CDK9 are determined as follows.
The IC50 activity of the inhibitor is determined using radiolabel filter binding (FB) assays using the purified human recombinant enzyme in the presence of ATP and peptide substrate. The ATP concentrations chosen are at or near the enzyme Km for ATP. Reactions are carried out in 96 well polystyrene plates in a final volume of 25 μL per well. 5 μL of test compound in 20% DMSO, 10 μL of substrate solution (ATP//[^33P]ATP and CDK7/9 tide) and 10 μL of enzyme solution are mixed. […] The enzyme solution is prepared for a final concentration of 7.5 nM CDK9/cyclinT1 enzyme [Proqinase 0371-0345-1 (Lot 004)] diluted in kinase buffer. Test compounds are serially diluted 1:3 in 20% DMSO to create a 10 point curve at a starting concentration of 2 μM. 20% DMSO buffer alone without test compound is employed as high control (full activity in the absence of any inhibitor), 500 mM EDTA is used to determine the level of background in the absence of enzyme activity (low control). After mixing 5 μL of compounds with 10 μL of enzyme solution the plate is incubated for 0 or 180 minutes at 22° C. After that time the reaction is initiated by the addition of 10 μL substrate solution and incubated for 60 minutes at 22° C. […] 80 μL of MICROSCINT™ is added to each well and read on a scintillation counter after an hour. […]
Assay [2] concerns phospho-carboxyl terminal domain (Ser2) in HCT116 cells. Kind of assay: p-CTD (S2) cell based Acumen assay. The note with it: Homo sapiens, HCT-116, 4 hours, read-out: relative IC50 for phosphoCTD (S2). As for the experimental part: (§1) HCT116 cells (ATCC CCL-247) are cultured in McCoy's 5A Medium Modified media supplemented with 10% FBS, 1% NaPyr and 1% Pen/Strep and plated (prior to becoming 70% confluent) in 96-well flat-bottom plates at a density of 5,000 cells per well in 100 μL volume. The cells are then incubated overnight in a cell culture incubator (5% CO2, 95% Relative Humidity (RH) and 37° C.) and allowed to attach to the plate. The following morning the cells are dosed with compounds. Compound inhibitors are first solubilized at 60 μM in culture medium containing 0.6% DMSO. Subsequently compound serial dilutions (1:3) are prepared over a 6 μM to 0.00 μM range. […]
The following day cells are washed three times with PBS (100 μL/well) and incubated with 50 μL/well of secondary antibody (1:2000 dilution, Goat anti-rabbit IgM ALEXA FLUOR™ 488) in PBS for 1 hour at RT. […] Plates are analyzed on Acumen on FL2 (mean intensity), and FL3 (total intensity). Fluorescence plates are scanned with ACUMEN EXPLORER™ [Laser-scanning fluorescence microplate cytometer manufactured by TTP LABTECH LTD] to measure anti-phospho-carboxyl terminal domain at Serine 2 (pCTD). […]
The IC50 is determined by curve fitting to a four parameter logistic for each output using GENE DATA™.

Assay [3] concerns the target CDK7/CyclinH/Mat1 (Homo sapiens, UniProt P50613). Kind of assay: Biochemical assay for inhibition of CDK7/CyclinH/MAT1 (radiolabel filter binding).
Experimental: The purpose of this assay is to measure the ability of a compound of the invention to inhibit CDK7/CyclinH/Mat1 complex kinase activity.
The IC50 activity of the inhibitor is determined using radiolabel filter binding (FB) assays using the purified human recombinant enzyme in the presence of ATP//[3^3P]ATP and peptide substrate. The ATP concentrations chosen are at or near the enzyme Km for ATP.
Reactions are carried out in 96 well polystyrene plates in a final volume of 25 μL per well. 5 μL of test compound in 20% DMSO, 10 μL of substrate solution (ATP/33PATP and CDK7/9 tide) and 10 μL of enzyme solution are mixed. […] The enzyme solution is prepared for a final concentration of 1 nM CDK7/CyclinH/Mat1 enzyme [Proqinase 0366-0360-4 Lot 002)] diluted in kinase buffer. Test compounds are serially diluted 1:3 in 20% DMSO to create a 10 point curve at a starting concentration of 20 μM. 20% DMSO buffer alone without test compound is employed as high control (full activity in the absence of any inhibitor), 500 mM EDTA is used to determine the level of background in the absence of enzyme activity (low control). After mixing 5 μL of compounds with 10 μL of enzyme solution the plate is incubated for 0 or 180 minutes at 22° C. After that time the reaction is initiated by the addition of 10 μL substrate solution and incubated for 50 minutes at 22° C. The reaction is terminated by the addition of 80 μL of cold 10% ortophosphoric solution. The Filter Plates (opaque, non-sterile filter plates) are prewashed with 10 μL of 10% orthophosphoric solution to each well. 100 μL of the mixture are transferred to a phosphocellulose filter and incubated at room temperature for 45 minutes. Filter plates are washed with 200 μL 0.5% orthophosphoric acid 3 times on a filter plate processor. Incorporation of 33Pi (counting of “cpm”) is determined by adding 80 μL of MICROSCINT™ to each well and read on a counter after an hour. Data is processed through a [sequence] […] ® tool. Data are analyzed using a 4-parameter nonlinear logistic equation (four-parameter logistic concentration-response curve): Y=bot+[(top-bot)/1+(x/IC50)slope] where Y=% inhibition, X=concentration yielding y % inhibition, Bottom=minimum value of y attained by curve, Top=maximum value of y attained by curve and Slope=steepness of curve at IC50. % Inh=[(median Max−x/median Max−median Min)]·100
IC50: concentration of compound that reduces a given response (ligand binding, enzyme response) by 50%.
Assay [4] relates to cMyc in HCT116 cells. Kind of assay: cMyc cell based Acumen assay. The settings on record: Homo sapiens, HCT-116, 4 hours, read-out: Relative IC50 for cMyc.
In assay [5] the test system is phospho-carboxyl terminal domain (Ser5) in HCT116 cells. The assay is described as follows: p-CTD (S5) cell based Acumen assay. The settings on record: Homo sapiens, HCT-116, 4 hours, read-out: Relative IC50 for pCTD Ser5. As for the experimental part: as §1, with “are” for “are then”, “following morning,” for “following morning”, “are” for “are first”, “a 60” for “a 6”, “to 0.003” for “to 0.00”
The following day cells are washed three times with PBS (100 μL/well) and incubated with 50 μL/well of secondary antibody (1:2000 dilution, Goat anti-rabbit IgM ALEXA FLUOR™ 488) in PBS for 1 hour at room temperature. […] Plates are analyzed on Acumen on FL2 (mean intensity), and FL3 (total intensity). Fluorescence plates are scanned with ACUMEN EXPLORER™ [Laser-scanning fluorescence microplate cytometer manufactured by TTP LABTECH LTD] to measure anti-phospho-carboxyl terminal domain at Serine 5 (pCTD). […] The IC50 is determined by curve fitting to a four parameter logistic for each output using GENE DATA™.

Chain of CDK7/CyclinH/Mat1 (P50613 whole entry): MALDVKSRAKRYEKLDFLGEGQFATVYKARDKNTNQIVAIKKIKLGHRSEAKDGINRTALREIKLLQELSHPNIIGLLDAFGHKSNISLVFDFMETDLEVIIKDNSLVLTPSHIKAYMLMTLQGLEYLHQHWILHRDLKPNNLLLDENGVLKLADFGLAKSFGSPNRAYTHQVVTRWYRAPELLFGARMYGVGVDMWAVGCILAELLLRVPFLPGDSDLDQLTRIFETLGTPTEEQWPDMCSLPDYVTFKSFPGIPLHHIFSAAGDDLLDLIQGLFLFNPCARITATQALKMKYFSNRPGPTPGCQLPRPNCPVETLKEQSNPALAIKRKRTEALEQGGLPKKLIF
Chain of CDK7/CyclinH/Mat1 (P51946 whole entry partner): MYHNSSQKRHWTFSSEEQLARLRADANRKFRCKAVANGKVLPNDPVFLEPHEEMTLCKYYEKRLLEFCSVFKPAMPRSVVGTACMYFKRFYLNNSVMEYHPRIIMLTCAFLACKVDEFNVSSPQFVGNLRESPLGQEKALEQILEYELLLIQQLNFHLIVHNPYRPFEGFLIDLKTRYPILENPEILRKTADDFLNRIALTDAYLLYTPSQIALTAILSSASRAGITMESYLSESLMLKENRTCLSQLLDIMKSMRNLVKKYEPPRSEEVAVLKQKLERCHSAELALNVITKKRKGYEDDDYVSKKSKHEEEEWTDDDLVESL
Chain of CDK7/CyclinH/Mat1 (P51948 whole entry partner): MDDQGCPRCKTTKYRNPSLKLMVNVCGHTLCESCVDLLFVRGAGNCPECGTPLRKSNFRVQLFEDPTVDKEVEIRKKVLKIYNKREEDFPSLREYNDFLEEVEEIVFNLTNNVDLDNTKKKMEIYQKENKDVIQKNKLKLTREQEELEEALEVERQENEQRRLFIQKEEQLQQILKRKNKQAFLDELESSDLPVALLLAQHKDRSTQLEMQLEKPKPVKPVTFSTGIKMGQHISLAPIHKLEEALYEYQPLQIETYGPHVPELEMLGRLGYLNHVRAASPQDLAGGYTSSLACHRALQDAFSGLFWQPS
Chain of CDK9/cyclinT1 (P50750 whole entry, the tested form may be a part): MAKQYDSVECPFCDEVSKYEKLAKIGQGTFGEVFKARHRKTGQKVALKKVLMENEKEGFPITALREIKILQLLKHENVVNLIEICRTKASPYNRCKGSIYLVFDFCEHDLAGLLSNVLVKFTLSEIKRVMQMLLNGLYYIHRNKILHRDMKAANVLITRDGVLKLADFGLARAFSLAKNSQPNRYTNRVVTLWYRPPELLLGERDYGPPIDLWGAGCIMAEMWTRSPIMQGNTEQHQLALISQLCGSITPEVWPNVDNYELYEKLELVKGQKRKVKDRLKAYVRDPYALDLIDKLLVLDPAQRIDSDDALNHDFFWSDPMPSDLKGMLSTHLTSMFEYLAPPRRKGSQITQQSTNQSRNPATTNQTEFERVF
Chain of CDK9/cyclinT1 (O60563 whole entry partner, the tested form may be a part): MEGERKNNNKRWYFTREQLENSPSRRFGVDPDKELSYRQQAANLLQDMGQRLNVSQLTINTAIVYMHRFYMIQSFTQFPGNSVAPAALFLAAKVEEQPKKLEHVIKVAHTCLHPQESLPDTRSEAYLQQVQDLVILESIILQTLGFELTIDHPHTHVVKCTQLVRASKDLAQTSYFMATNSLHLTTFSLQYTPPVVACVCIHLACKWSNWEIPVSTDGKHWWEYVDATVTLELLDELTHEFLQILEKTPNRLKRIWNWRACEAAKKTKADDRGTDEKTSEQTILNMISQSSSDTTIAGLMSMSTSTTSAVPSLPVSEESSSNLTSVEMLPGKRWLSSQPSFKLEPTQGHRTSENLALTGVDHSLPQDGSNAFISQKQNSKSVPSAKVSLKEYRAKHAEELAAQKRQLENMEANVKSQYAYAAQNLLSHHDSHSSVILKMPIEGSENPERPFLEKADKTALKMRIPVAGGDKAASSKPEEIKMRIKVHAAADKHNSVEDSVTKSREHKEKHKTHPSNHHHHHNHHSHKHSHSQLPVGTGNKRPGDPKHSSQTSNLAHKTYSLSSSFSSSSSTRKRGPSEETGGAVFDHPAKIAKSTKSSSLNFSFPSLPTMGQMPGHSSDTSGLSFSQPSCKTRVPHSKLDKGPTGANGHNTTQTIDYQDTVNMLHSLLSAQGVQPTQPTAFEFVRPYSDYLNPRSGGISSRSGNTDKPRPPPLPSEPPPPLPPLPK

Usually IC50 stands for the concentration at which inhibition is half-maximal. With `Cc1cc(NC2CCN(C(=O)O[C@@H]3CCN(C(=O)/C=C/CN(C)C)C3)CC2)n2ncc(C(C)C)c2n1` [Example 3, [(3R)-1-[(E)-4-(dimethylamino)but-2-enoyl]pyrrolidin-3-yl] 4-[(3-isopropyl-5-methyl-pyrazolo[1,5-a]pyrimidin-7-yl)amino]piperidine-1-carboxylate], the IC50 in assay [1] stood at 2450 nM; in assay [2] it was 3520 nM; in assay [3] (IC50 in CDK7, 3 hours of preincubation of CDK7 enzyme), 5.06 nM; in assay [3] (IC50 in CDK7, without preincubation), 48.7 nM; in assay [4], 57.3 nM; in assay [5], 198 nM.
